Data from patent US9908831B2, “Resist composition, method for forming resist pattern, polyphenolic compound for use in the composition, and alcoholic compound that can be derived therefrom” (Mitsubishi Gas Chemical Company, Inc., priority 2011, dated 2018).

Experiments:
Assay type in all cases: physicochemical
[1] = Solubility test of compound in safe solvent; conditions: 23° C., visual
Procedure: (2) Solubility Test of Compound in Safe Solvent
(§1) The solubility of the compound in PGME and PGMEA was evaluated according to the following standard using the dissolution amount in each solvent. For the measurement of the dissolution amount, the compound was precisely weighed in a test tube at 23° C.; and the target solvent was added to the compound so that a predetermined concentration of the liquid to be obtained was set; a ultrasonic wave was applied to the liquid in an ultrasonic washing machine for 30 minutes; and the state of the resulting liquid was visually evaluated.
A: 5.0% by weight≦dissolution amount
B: 3.0% by weight≦dissolution amount<5.0% by weight
C: dissolution amount<3.0% by weight

[2] = Solubility of compound in methyl ethyl ketone (MEK); conditions: dissolution amount in MEK at 23° C., visual
Procedure: (1) Solubility of Compound in Methyl Ethyl Ketone (MEK)
as §1, with “MEK” for “PGME and PGMEA”, “MEK at 23° C.” for “each solvent.”
Evaluation A: 50% by weight or more
Evaluation B: 10% by weigh or more and less than 50% by weight
Evaluation C: less than 10% by weight

[3] = Glass transition temperature by DSC; conditions: 10° C./min to 300° C., second heating after quench, nitrogen gas stream
Procedure: (4) Glass Transition Temperature
The apparatus EXSTAR6000DSC (trade name) manufactured by SII NanoTechnology Inc. was used. About 5 mg of each sample was placed in a non-sealed container made of aluminum, and the temperature was raised to 300° C. at the rate of temperature rise of 10° C./min in a nitrogen gas stream (30 mL/min). After the non-sealed container made of aluminum was quenched, again the temperature was raised to 300° C. at the rate of temperature rise of 10° C./min in a nitrogen gas stream (30 mL/min), thereby performing DSC measurement. The temperature corresponding to the middle point (where the specific heat was changed into the half) of a region in which a discontinuous portion appeared in the baseline was defined as the glass transition point.

[4] = Thermal decomposition temperature by DSC; conditions: 10° C./min to 500° C., nitrogen gas stream
Procedure: (3) Thermal Decomposition Temperature
The apparatus EXSTAR6000DSC (trade name) manufactured by SII NanoTechnology Inc. was used. About 5 mg of each sample was placed in a non-sealed container made of aluminum, and the temperature was raised to 500° C. at the rate of temperature rise of 10° C./min in a nitrogen gas stream (30 mL/min). The temperature corresponding to a descending peak appeared in the baseline was defined as the thermal decomposition temperature.

| Structure (SMILES) | Solubility test of compound in safe solvent PGME [1] | Solubility test of compound in safe solvent PGMEA [1] | solubility in MEK [2] | glass transition point [3] [°C] | thermal decomposition temperature [4] [°C] |
| --- | --- | --- | --- | --- | --- |
| Oc1ccc2c(C(c3cc(C(c4c(O)ccc5cc(O)ccc45)c4c(O)ccc5cc(O)ccc45)cc(C(c4c(O)ccc5cc(O)ccc45)c4c(O)ccc5cc(O)ccc45)c3)c3c(O)ccc4cc(O)ccc34)c(O)ccc2c1 [BisN-14] | A (A: 5.0% by weight≦dissolution amount) | A (A: 5.0% by weight≦dissolution amount) | B (Evaluation B: 10% by weigh or more and less than 50% by weight) | 130 | 245 |
| Oc1ccc2ccc3c(c2c1)C(c1ccc(-c2ccccc2)cc1)c1c(ccc2ccc(O)cc12)O3 [XBisN-2] | A (A: 5.0% by weight≦dissolution amount) | A (A: 5.0% by weight≦dissolution amount) | B (Evaluation B: 10% by weigh or more and less than 50% by weight) | 152 | 410 |
| Oc1ccc2c3c(ccc2c1)Oc1ccc2cc(O)ccc2c1C3c1ccc(-c2ccccc2)cc1 [XBisN-1] | A (A: 5.0% by weight≦dissolution amount) | A (A: 5.0% by weight≦dissolution amount) | A (Evaluation A: 50% by weight or more) | 152 | 410 |
| Oc1ccc2c3c(ccc2c1)Oc1ccc2cc(O)ccc2c1C3c1cc2cccc3ccc4cccc1c4c32 [XBisN-9] | A (A: 5.0% by weight≦dissolution amount) | A (A: 5.0% by weight≦dissolution amount) | B (Evaluation B: 10% by weigh or more and less than 50% by weight) | 155 | 420 |
| Oc1ccc2c3c(ccc2c1)Oc1ccc2cc(O)ccc2c1C3c1ccc(-c2ccc(C3c4c(ccc5cc(O)ccc45)Oc4ccc5cc(O)ccc5c43)cc2)cc1 [XBisN-13] | A (A: 5.0% by weight≦dissolution amount) | A (A: 5.0% by weight≦dissolution amount) | B (Evaluation B: 10% by weigh or more and less than 50% by weight) | 152 | 410 |
| Oc1ccc2c(O)cccc2c1C(c1ccc(-c2ccccc2)cc1)c1c(O)ccc2c(O)cccc12 [BisN-4] | A (A: 5.0% by weight≦dissolution amount) | A (A: 5.0% by weight≦dissolution amount) | B (Evaluation B: 10% by weigh or more and less than 50% by weight) | 130 | 250 |
| Oc1ccc2c(C(c3ccc(-c4ccccc4)cc3)c3c(O)ccc4cc(O)ccc34)c(O)ccc2c1 [BisN-1] | A (A: 5.0% by weight≦dissolution amount) | A (A: 5.0% by weight≦dissolution amount) | B (Evaluation B: 10% by weigh or more and less than 50% by weight) | 130 | 250 |
| Oc1ccc2c(C3(c4c(O)ccc5cc(O)ccc45)c4ccccc4-c4ccccc43)c(O)ccc2c1 [BisN-11] | A (A: 5.0% by weight≦dissolution amount) | A (A: 5.0% by weight≦dissolution amount) | B (Evaluation B: 10% by weigh or more and less than 50% by weight) | 135 | 250 |
| Oc1ccc2c3c(ccc2c1)Oc1ccc2cc(O)ccc2c1C3c1cc2ccccc2c2ccccc12 [XBisN-8] | A (A: 5.0% by weight≦dissolution amount) | A (A: 5.0% by weight≦dissolution amount) | B (Evaluation B: 10% by weigh or more and less than 50% by weight) | 155 | 415 |
| Oc1ccc2c(C(c3ccc(C(c4c(O)ccc5cc(O)ccc45)c4c(O)ccc5cc(O)ccc45)cc3)c3c(O)ccc4cc(O)ccc34)c(O)ccc2c1 [BisN-12] | A (A: 5.0% by weight≦dissolution amount) | A (A: 5.0% by weight≦dissolution amount) | B (Evaluation B: 10% by weigh or more and less than 50% by weight) | 130 | 245 |
| Oc1cccc2c3c(ccc12)Oc1ccc2c(O)cccc2c1C3c1ccc(-c2ccccc2)cc1 [XBisN-4] | A (A: 5.0% by weight≦dissolution amount) | A (A: 5.0% by weight≦dissolution amount) | B (Evaluation B: 10% by weigh or more and less than 50% by weight) | 152 | 410 |
| Oc1ccc2c3c(ccc2c1)Oc1ccc2cc(O)ccc2c1C3c1cc(C2c3c(ccc4cc(O)ccc34)Oc3ccc4cc(O)ccc4c32)cc(C2c3c(ccc4cc(O)ccc34)Oc3ccc4cc(O)ccc4c32)c1 [XBisN-14] | A (A: 5.0% by weight≦dissolution amount) | A (A: 5.0% by weight≦dissolution amount) | B (Evaluation B: 10% by weigh or more and less than 50% by weight) | 152 | 410 |
| Oc1ccc2c3c(ccc2c1)Oc1ccc2cc(O)ccc2c1C3c1cccc2ccccc12 [XBisN-7] | A (A: 5.0% by weight≦dissolution amount) | A (A: 5.0% by weight≦dissolution amount) | B (Evaluation B: 10% by weigh or more and less than 50% by weight) | 155 | 415 |
